# In publication PMC10150354, “Linearization of the Brevicidine and Laterocidine Lipopeptides Yields Analogues That Retain Full Antibacterial Activity” (Journal of Medicinal Chemistry, 2023):
# Where a SMILES comes first, the peptide text is derived from it. [ ]: non-standard residue; d: D form. The star is where a group is joined. ξ: configuration not given here. Octanoyl(7-Me) = CC(C)CCCCCC(=O)*; Hexanoyl(4ξ-Me) = CCC(C)CCC(=O)*; dOrn = NCCC[C@@H](N)C(=O)O; Orn = NCCC[C@H](N)C(=O)O; Dap = NC[C@H](N)C(=O)O; Alloc = C=CCOC(=O)*
# Assays:
# [1] = test system: E. coli (MCR-1); type: cell-based, Escherichia coli; conditions: microbroth dilution per CLSI, MHB, 18 h at 37 °C, visual inspection, three technical replicates, E. coli 25922 carrying mcr-1
# Procedure, shortened: (§1)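 CLSI broth microdilution in MHB, polypropylene plates; log-phase bacteria (OD600 ~0.5, grown in TSB, with kanamycin for the E. coli ATCC 25922 MCR-1 strain) added at 2 × 10^5 CFU/mL. Read visually after 18 h at 37 °C with shaking; MIC = lowest concentration preventing visible growth, three technical replicates.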
# [2] = test system: E. coli ATCC 25922; type: cell-based, Escherichia coli; conditions: for MIC (µg/mL) against E. coli (ATCC 25922): (Supplement 2); for Antibacterial activity (MIC) E. coli ATCC 25922: microbroth dilution per CLSI, MHB, 18 h at 37 °C, visual inspection, three technical replicates
# Procedure, shortened: as §1
# [3] = test system: K. pneumoniae ATCC 13883; type: cell-based, Klebsiella pneumoniae; conditions: microbroth dilution per CLSI, MHB, 18 h at 37 °C, visual inspection, three technical replicates
# Procedure, shortened: as §1
# [4] = test system: A. baumannii ATCC 17961; type: cell-based, Acinetobacter baumannii; conditions: microbroth dilution per CLSI, MHB, 18 h at 37 °C, visual inspection, three technical replicates
# Procedure, shortened: as §1
# [5] = test system: P. aeruginosa PAO1; type: cell-based, Pseudomonas aeruginosa; conditions: microbroth dilution per CLSI, MHB, 18 h at 37 °C, visual inspection, three technical replicates
# Procedure, shortened: as §1
# [6] = test system: S. aureus USA300; type: cell-based, Staphylococcus aureus; conditions: microbroth dilution per CLSI, MHB, 18 h at 37 °C, visual inspection, three technical replicates
# Procedure, shortened: as §1
# [7] = test system: panel of Gram-negative and Gram-positive ESKAPE pathogens; type: cell-based; conditions: for MIC values, summarised over strains: against most strains of the panel; for fold improvement in activity with respect to C-terminal acids 4 and 5: MIC of C-terminal amide vs C-terminal acid; for fold reduction in activity compared to parent peptides: MIC vs brevicidine / laterocidine
# Experimental: Linear laterocidine (LL-OH, 4) and linear brevicidine (LB-OH, 5) were first synthesized by Fmoc SPPS, starting from 2-chlorotrityl (2-CT) chloride resin. The antibacterial activity of these peptides was then compared to brevicidine (1) and laterocidine (2) using minimum inhibitory concentration (MIC)/microbroth dilution assays (Table 1). The MICs of all peptides were determined against a panel of Gram-negative and Gram-positive ESKAPE pathogens. Additionally, a strain of E. coli carrying the mcr-1 gene was included in the panel. The mcr-1 gene is a transferrable plasmid that confers resistance against colistin, a last-resort antibiotic for Gram-negative infections, by reducing the overall negative charge of lipopolysaccharide (LPS) through modification of lipid A with phosphoethanolamine. The propensity for cationic antibiotics to bind to the cell membrane is therefore reduced. This gene has been observed in more than 27 bacterial species over six continents.[26] The spread of the mcr-1 gene could render colistin ineffectual; therefore, novel antibacterials are urgently required to overcome this form of resistance.
# All minimum inhibitory concentrations (MICs) were determined according to Clinical and Laboratory Standards Institute (CLSI) guidelines. Blood agar plates were inoculated with glycerol stocks of E. coli ATCC 25922, K. pneumoniae ATCC 13883, A. baumannii ATCC 17961, P. aeruginosa PAO1, and S. aureus USA300. The inoculated agar plates were then incubated for 16 h at 37 °C. Individually grown colonies were subsequently used to inoculate 5 mL aliquots of TSB that were then incubated at 37 °C with shaking at 220 rpm. E. coli 25922 MCR-1 glycerol stock was used to inoculate 5 mL of TSB supplemented with kanamycin that was then incubated for 16 h at 37 °C with shaking at 220 rpm. The next day the culture was diluted 100-fold in TSB supplemented with kanamycin and incubated at 37 °C with shaking at 220 rpm. In parallel, the lipopeptide antibiotics DMSO stocks to be assessed were serially diluted with MHB in polypropylene 96-well plates (50 μL in each well). Colistin sulfate stocks were dissolved in water before being diluted with MHB. Aliquots of the inoculated TSB were incubated until an OD600 of around 0.5 was reached. The bacterial suspensions were then diluted with MHB (2 × 10^5 CFU/mL) and added to the microplates containing the test compounds (50 μL to each well). The well plates were sealed with an adhesive membrane and after 18 h of incubation at 37 °C with shaking at 600 rpm, the wells were visually inspected for bacterial growth. MIC values reported are based on three technical replicates and defined as the lowest concentration of the compound that prevented visible growth of bacteria.
Structure (SMILES),Antibacterial activity (MIC) E. coli (MCR-1) [1] [µg/mL],MIC (µg/mL) against E. coli (ATCC 25922) [2] [µg/mL],Antibacterial activity (MIC) E. coli ATCC 25922 [2] [µg/mL],Antibacterial activity (MIC) K. pneumoniae ATCC 13883 [3] [µg/mL],Antibacterial activity (MIC) A. baumannii ATCC 17961 [4] [µg/mL],Antibacterial activity (MIC) P. aeruginosa PAO1 [5] [µg/mL],Antibacterial activity (MIC) S. aureus USA300 [6] [µg/mL],"MIC values, summarised over strains [7] [µg/mL]",fold improvement in activity with respect to C-terminal acids 4 and 5 [7] [fold],fold reduction in activity compared to parent peptides [7]
CCC(C)CCC(=O)N[C@H](CC(N)=O)C(=O)N[C@H](Cc1ccc(O)cc1)C(=O)N[C@H](Cc1c[nH]c2ccccc12)C(=O)N[C@H](CCCN)C(=O)N[C@@H](CCCN)C(=O)NCC(=O)N[C@H](CCCN)C(=O)N[C@@H](Cc1c[nH]c2ccccc12)C(=O)N[C@@H](Cc1ccccc1)C(=O)N[C@H](C(=O)NCC(N)=O)[C@@H](C)CC (stereo partly drawn) [Δ12LB (Phe9)-NH2 (54)] ({Hexanoyl(4ξ-Me)}-[dN][dY][dW][dOrn][Orn]G[dOrn]WFIG-NH2),2 to 4,4,2,2 to 4,4,4,>32,2 to 4,–,–
CC[C@H](C)[C@H](NC(=O)[C@@H](NC(=O)[C@H](Cc1c[nH]c2ccccc12)NC(=O)[C@@H](CCCN)NC(=O)CNC(=O)[C@H](CCCN)NC(=O)[C@@H](CCCN)NC(=O)[C@@H](Cc1c[nH]c2ccccc12)NC(=O)[C@@H](Cc1ccc(O)cc1)NC(=O)[C@@H](CO)NC(=O)CCCCCC(C)C)[C@@H](C)O)C(=O)N[C@@H](CC(N)=O)C(=O)NCC(=O)NCC(N)=O [LL-NH2 (6)] ({Octanoyl(7-Me)}-[dS][dY][dW][dOrn][Orn]G[dOrn]WTINGG-NH2),8,–,4,4 to 8,8,4,>32,–,2,2/4
CCC(C)CCC(=O)N[C@H](CC(N)=O)C(=O)N[C@H](Cc1ccc(O)cc1)C(=O)N[C@H](Cc1c[nH]c2ccccc12)C(=O)N[C@H](CCCN)C(=O)N[C@@H](CCCN)C(=O)NCC(=O)N[C@H](CCCN)C(=O)N[C@@H](Cc1c[nH]c2ccccc12)C(=O)N[C@H](C(=O)N[C@H](C(=O)NCC(=O)N[C@@H](CO)C(N)=O)[C@@H](C)CC)[C@@H](C)O (stereo partly drawn) [LB-NH2 (7)] ({Hexanoyl(4ξ-Me)}-[dN][dY][dW][dOrn][Orn]G[dOrn]WTIGS-NH2),16,–,16,16,16,4,>32,–,2,2/4
C=CCOC(=O)NC[C@H](NC(=O)[C@H](Cc1c[nH]c2ccccc12)NC(=O)[C@@H](CCCN)NC(=O)CNC(=O)[C@H](CCCN)NC(=O)[C@@H](CCCN)NC(=O)[C@@H](Cc1c[nH]c2ccccc12)NC(=O)[C@@H](Cc1ccc(O)cc1)NC(=O)[C@@H](CC(N)=O)NC(=O)CCC(C)CC)C(=O)N[C@H](C(=O)NCC(N)=O)[C@@H](C)CC (stereo partly drawn) [Δ12LB (Dap[Alloc]9)-NH2 (61)] ({Hexanoyl(4ξ-Me)}-[dN][dY][dW][dOrn][Orn]G[dOrn]W[Dap](Alloc)IG-NH2),4,4,4,2,2,4,>32,2 to 4,–,–
CC[C@H](C)[C@H](NC(=O)[C@@H](NC(=O)[C@H](Cc1c[nH]c2ccccc12)NC(=O)[C@@H](CCCN)NC(=O)CNC(=O)[C@H](CCCN)NC(=O)[C@@H](CCCN)NC(=O)[C@@H](C)NC(=O)[C@@H](Cc1ccc(O)cc1)NC(=O)[C@@H](CO)NC(=O)CCCCCC(C)C)[C@@H](C)O)C(=O)N[C@@H](CC(N)=O)C(=O)NCC(=O)NCC(N)=O [LL(D-Ala3)-NH2 (31)] ({Octanoyl(7-Me)}-[dS][dY][dA][dOrn][Orn]G[dOrn]WTINGG-NH2),>32,–,>32,>32,>32,>32,>32,–,–,–
CC[C@H](C)[C@H](NC(=O)[C@H](C)NC(=O)[C@H](Cc1c[nH]c2ccccc12)NC(=O)[C@@H](CCCN)NC(=O)CNC(=O)[C@H](CCCN)NC(=O)[C@@H](CCCN)NC(=O)[C@@H](Cc1c[nH]c2ccccc12)NC(=O)[C@@H](Cc1ccc(O)cc1)NC(=O)[C@@H](CO)NC(=O)CCCCCC(C)C)C(=O)N[C@@H](CC(N)=O)C(=O)NCC(=O)NCC(N)=O [LL(Ala9)-NH2 (37)] ({Octanoyl(7-Me)}-[dS][dY][dW][dOrn][Orn]G[dOrn]WAINGG-NH2),4 to 8,–,4,4,8,4,>32,–,–,–
CCC(C)CCC(=O)N[C@H](CC(N)=O)C(=O)N[C@H](Cc1ccc(O)cc1)C(=O)N[C@H](Cc1c[nH]c2ccccc12)C(=O)N[C@H](CCCN)C(=O)N[C@@H](CCCN)C(=O)NCC(=O)N[C@H](CCCN)C(=O)N[C@@H](Cc1c[nH]c2ccccc12)C(=O)N[C@@H](CC(N)=O)C(=O)N[C@H](C(=O)NCC(N)=O)[C@@H](C)CC (stereo partly drawn) [Δ12LB (Asn9)-NH2 (58)] ({Hexanoyl(4ξ-Me)}-[dN][dY][dW][dOrn][Orn]G[dOrn]WNIG-NH2),8,4,8,16,16,2,>32,–,–,–
CC[C@H](C)[C@H](NC(=O)[C@@H](NC(=O)[C@H](Cc1c[nH]c2ccccc12)NC(=O)[C@@H](CCCN)NC(=O)CNC(=O)[C@H](CCCN)NC(=O)[C@@H](CCCN)NC(=O)[C@@H](Cc1c[nH]c2ccccc12)NC(=O)[C@@H](Cc1ccc(O)cc1)NC(=O)[C@@H](C)NC(=O)CCCCCC(C)C)[C@@H](C)O)C(=O)N[C@@H](CC(N)=O)C(=O)NCC(=O)NCC(N)=O [LL(D-Ala1)-NH2 (29)] ({Octanoyl(7-Me)}-[dA][dY][dW][dOrn][Orn]G[dOrn]WTINGG-NH2),8,–,8,>32,32,8,>32,–,–,–
